Patent publication US20250099383A1, “COMPOSITIONS AND METHODS FOR DELIVERY OF NUCLEIC ACIDS” (Poseida Therapeutics, Inc., priority 2022, published 2025)

Legend:
[1] = Physical characteristics of LNPs (particle size, PDI); type: physicochemical
liver cells [2] = experiment: In vivo LNP delivery of nanoplasmid CMV-firefly luciferase DNA to liver of juvenile mice, BLI; settings: juvenile female BALB/C mice age 14 days; 0.25 mg/kg nanoplasmid CMV-firefly luciferase retroorbital i.v.; BLI at 4 hr
Protocol: Juvenile female BALB/C mice of age 14 days (n=4/group) were retroorbitally intravenously administered 0.25 mg/kg of nanoplasmid CMV-firefly luciferase (Nature Technology Corp) formulated with LNP compositions as described in Example 66. One group of mice was treated with vehicle (PBS, Thermo Fisher Scientific, USA) as a negative control.
(§1) The location and extent of luciferase expression in treated and control mice were determined at 4 hr by bioluminescent imaging (BLI) of anesthetized mice using an IVIS Lumina in vivo imaging system (Perkin Elmer) according to the manufacturer's instructions. Briefly, mice were anesthetized using isoflurane in oxygen, and placed supine on a heated stage. Mice were then administered D-luciferin (Perkin-Elmer #122799) IP, and BLI was performed.

[3] = Body weight change of mice after LNP administration; type: in vivo, BALB/C mice
Protocol: The mice above were also monitored for changes in body weight after LNP delivery. Mice were manually weighed on a scale before LNP dosage and then weighed 24 hrs after administration of 0.5 mg/kg of LNP article encapsulating Cleancap firefly luciferase mRNA. The average of weight change n=3 is reported below.
In addition, the body weight of mice treated with the LNP compositions of Table 25 was assessed prior to intravenous administration and twenty-four hours post-administration and the body weights at baseline and post-treatment were compared. The average percentage of body weight change for each group of mice treated with each LNP composition of Table 25 is shown in Table 28. […]

liver cells [4] = experiment: In vivo LNP delivery of firefly luciferase mRNA to liver, bioluminescent imaging (BLI); set-up: species or system BALB/C mice; settings: 0.5 mg/kg fLuciferase mRNA i.v., BLI at 4 hr
Protocol: Adult female BALB/C mice (n=3/group) were intravenously administered 0.5 mg/kg of 5′-CleanCap-fLuciferase mRNA (TriLink Biotech) formulated with LNP compositions as described in Example 66. One group of mice was treated with vehicle (PBS, Thermo Fisher Scientific, USA) as a negative control.
as §1
Adult female BALB/C mice (n=3/group) were intravenously administered 0.5 mg/kg of 5′-CleanCap-fLuciferase mRNA (TriLink Biotech) formulated with the LNP compositions shown in Table 25. One group of mice was treated with vehicle (PBS, Thermo Fisher Scientific, USA) as a negative control. […]

liver cells [5] = experiment: In vivo LNP delivery of firefly luciferase DNA to liver of adult mice, BLI; set-up: species or system BALB/C mice; settings: BLI at 24 hr; for Mean Liver Luciferase Flux (p/s): AM-TTR firefly luciferase nanoplasmid DNA 0.5 mg/kg, adult BALB/C, n=3
Protocol: as §1
as §1, with “4 hr and 48” for “4”
as §1, with “24” for “4”
One group of mice was treated with an LNP composition of the present disclosure comprising Compound No. 30 as a positive control.
as §1, with “hr for RNA delivery, or 48 hr for DNA delivery,” for “hr”

[6] = LNP with Fluc DNA, compound/DOPE/Cholesterol/DMG-PEG2000 38/50/10.0/2.0, Lipid:DNA 45:1 (w/w)
[7] = LNP with Fluc mRNA, compound/DOPE/Cholesterol/DMG-PEG2000 41.44/45.85/10/2.7, Lipid:RNA 40:1 (w/w)

With `CC(C)CCCC1CCC(C(=O)OCCOC(=O)CCN(CCCN(C)CCCN(CCC(=O)OCCOC(=O)C2CCC(CCCC(C)C)CC2)CCC(=O)OCCOC(=O)C2CCC(CCCC(C)C)CC2)CCC(=O)OCCOC(=O)C2CCC(CCCC(C)C)CC2)CC1` (stereo not shown) [Compound 30] as the compound, how does the “PDI DNA” value [1, 6] read?
The value was 0.167.

And the “Particle Size (nm) DNA” value [1, 6]?
Its value is 276.9 nm.

What about the “PDI RNA” value [1, 7] of the same compound?
The value was 0.170.

And the “Particle Size (nm) RNA” value [1, 7]?
Its value is 326.7 nm.

And the “Ave flux (p/s) n = 4” value (liver cells [2])?
The value was 7332500000 p/s.

What about the “Ave weight change (gram) n = 3” value ([3]; 24 hrs after 0.5 mg/kg LNP encapsulating firefly luciferase mRNA, adult female BALB/C mice) of the same compound?
Its value is −5.67 gram.

What about the “% Body Weight Change 24 hr” value ([3]; LNP compositions of Table 25, 0.5 mg/kg fLuciferase mRNA i.v., 24 hr post-administration vs baseline) of the same compound?
The value was −2.8%.

What about the “Mean Liver Luciferase Flux (p/s)” value (liver cells [4]; LNP compositions of Table 25, adult female BALB/C, n=3) of the same compound?
Its value is 1.28e11 p/s.

And the “Ave flux (p/s) n = 3” value (liver cells [4]; adult female BALB/C mice, LNP as in Example 66)?
The value was 3.26E+10 p/s.

What about the “luciferase expression by BLI after DNA LNP, liver specific promoter (in words)” value (liver cells [5]; 0.5 mg/kg total DNA, nanoplasmid firefly luciferase under AM-TTR promoter, adult BALB/C mice) of the same compound?
Its value is “successfully delivered DNA to liver cells”.

And the “Mean Liver Luciferase Flux (p/s)” value (liver cells [5]; LNP (Table 47) with Compound No. 30 prepared according to Alternative General Procedure K)?
Its value is 31400000 p/s.

What about the “Mean Liver Luciferase Flux (p/s)” value (liver cells [5]; LNP (Table 47) with Compound No. 30 prepared according to Alternative General Procedure L) of the same compound?
Its value is 29600000 p/s.

And the “Mean Liver Luciferase Flux (p/s)” value (liver cells [5]; LNP (Table 47) with Compound No. 30 prepared according to Example 21)?
The value was 21266666.67 p/s.
